Measured values taken from publication PMC11795524, “Melanin-Binding-Based Discovery of Topically Instilled Carbonic Anhydrase Inhibitors for Targeted Delivery and Prolonged Action in the Eye” (Molecular Pharmaceutics, 2025).
Read-outs that look alike come from different tables or passages of the source.

What was measured:
[1] = In vitro melanin binding by microscale thermophoresis / initial fluorescence (Monolith NT.115 pico); conditions: for Kd / Melanin binding affinity Kd ± confidence: IF or MST mode, 68% confidence; for Melanin binding classification: class by Kd
Text: Melanin binding of the CAI-II compounds was studied with a Monolith NT.115 pico (NanoTemper Technologies GmbH, Munich, Germany) device using the method of […] et al. […] Otherwise, normalized fluorescence signals and the ratio of relative fluorescence after heating (MST mode) were used. The MST software was used in expert mode to allow heating for 30 s. […] As ligand autofluorescence may interfere with the assay, their autofluorescence values were pretested with the detector used in experiment (nanoblue or pico-red). Fluorescence of the ligand should be below 20% of melanin fluorescence. Sample aggregation and adsorption to the capillaries were used also as exclusion criteria.

[2] = molecular target: T1, human carbonic anhydrase II (Homo sapiens, UniProt P00918); experiment: Multiparametric surface plasmon resonance (MP-SPR) interaction kinetics with immobilized hCAII; assay type: binding
T1 construct: purchased Sigma
Experimental: All MP-SPR measurements were conducted at 25 °C using carboxymethyl dextran hydrogel-coated (CMD-3DM) sensors (BioNavis) and were based on the protocol described by Rogez-Florent et al.[22]
Human carbonic anhydrase isoenzyme II (Sigma) was immobilized using a standard amine coupling procedure with the Amine Coupling Kit (BioNavis) and phosphate buffered saline (PBS) (20 mM phosphate buffer, 150 mM NaCl, pH 7.4) as the background buffer. Before immobilization, the sensor surface was cleaned with 2 M sodium chloride and 10 mM sodium hydroxide for 6 min at a flow rate of 30 μL/min. Then, a constant flow rate of 10 μL/min was maintained throughout the immobilization steps. The surface was activated for 7 min with 200 mM 1-ethyl-3-(3-(dimethylamino)propyl)-carbodiimide (EDC) and 50 mM N-hydroxysuccinimide, immediately followed by a 5 min injection of 45 μg/mL hCAII solution in 10 mM acetate buffer, pH 5.5. In the reference flow channel, no enzyme was immobilized. Residual activated groups of the dextran matrix were deactivated by a 7 min injection of 1 M ethanolamine HCl, pH 8.3.
For analyzing CAIs, 1% (v/v) DMSO in PBS, pH 7.4, was used as a running buffer. All CAIs were dissolved in 100% DMSO and stored as 50 mM stock solutions. These stock solutions were further diluted with the running buffer and analyzed using a 3-fold (3–1000 nM) dilution series. […] Each analyte was injected at a flow rate of 100 μL/min, with an association time of 2 min and a dissociation time of 10 min. […] Seven concentrations were measured for each CAI per cycle, and a “wash all” step with running buffer was performed at the end of each cycle to minimize the carry over effects. Each CAI were assayed in triplicate across three independent experiments.
The acquired data were processed using MP-SPR Navi Data Viewer software (version 6.7.0.1, BioNavis) employing the weighted centroid method for determining the SPR peak angular position. Signals from the reference flow channel were subtracted from the corresponding signals of the flow channel containing immobilized hCAII. The moment of sample injection was selected as the zero-time point, where both the time and MP-SPR response were set to zero. Processed data were globally fitted to a simple 1:1 interaction model using TraceDrawer software (version 1.9.2, Ridgeview Instruments AB, Sweden) to obtain kinetic parameters.

[3] = system: albino rabbits (New Zealand White); experiment: IOP study in albino rabbits after single eye drop; assay type: in vivo, rabbit; conditions: single 25 μL eye drop; CAI 0.5 or 1.0%, dorzolamide 2%; n = 5
Experimental: (§1) Five 3–5 months old albino (New Zealand White, all females) and five 3–6 months old pigmented rabbits (Chinchilla Bastard, 1 male and 4 females) were purchased from Charles River Laboratories, UK and Germany, respectively. Prior to the experiments, the rabbits were habituated to handling, and the baseline values of IOP were measured. During the experiments, rabbits weighed 2.4–4.0 kg.
First, stock solutions of CAIs (250 mg/mL) in dimethyl sulfoxide (Sigma-Aldrich, Germany) were prepared. These stock solutions were diluted with PBS (pH 7.4) to obtain 1 mg/mL (0.1%) or 10 mg/mL (1%) solutions. Water-solubility of the compounds was enhanced with 2-hydroxypropyl-β-cyclodextrin (Sigma-Aldrich, Germany) (Table 1).
(§2) The CAI solutions were tested in albino rabbits (eye drops of 0.1, and 0.5 or 1.0%) and in pigmented rabbits (0.5 or 1.0%). The novel CAI concentrations in solutions were determined based on the drug solubility with the aim to load the highest possible drug concentration to the single eye drop.
(§3) The IOP levels in the rabbits were measured with a tonometer (Tonometer Pro, Icare Finland Ltd.). After baseline IOP measurements, a single eye drop (25 μL) was applied to the left eye, whereas the right eye was not treated. After eye drop instillation, the eyelids were kept open manually for 1 min. The IOP was measured from both eyes of the rabbits at 0.5, 1, 2, 3, 4, 5, 6, 7, and 8 h after eye drop instillation. In the case of the pigmented rabbits, the measurements were continued until 10 h postinstillation, and further until the IOP had returned to the normal baseline.
(§4) The CAIs were tested in the same rabbits to minimize interindividual data variation. Washout periods of at least 3 days were used between instillation of different compounds. The experiments started always at 8 a.m. to eliminate bias due to diurnal IOP fluctuation. At each time point, the pressure was measured three times with the same eye, and the average values were calculated and used in data analysis.

[4] = system: pigmented rabbits (Chinchilla Bastard); experiment: IOP study in pigmented rabbits after single eye drop; assay type: in vivo, rabbit; conditions: for ratio (AUCpigm/AUCalbino) of IOP response: pigmented vs albino rabbits
Experimental: as §1
First, stock solutions of CAIs (250 mg/mL) in dimethyl sulfoxide (Sigma-Aldrich, Germany) were prepared. These stock solutions were diluted with PBS (pH 7.4) to obtain 1 mg/mL (0.1%) or 10 mg/mL (1%) solutions.
as §2
Baseline IOP of pigmented rabbits was raised with two intravitreal triamcinolone acetonide injections (Triesence 40 mg/mL, Novartis Finland Ltd.) with 1 week interval to each eye. This method[25],[26] may induce ocular hypertension even up to 60 days in rabbits.[25]
The rabbits were anesthetized with 0.4 mg/kg, s.c. medetomidine (Domitor vet 1 mg/mL, Orion Pharma, Espoo, Finland) and 20 mg/kg s.c. ketamine (Ketaminol vet 50 mg/mL, Pfizer Oy Animal Health, Espoo, Finland). Mydriasis was induced with topical tropicamide eyedrops (Oftan Tropicamid 5 mg/mL, Santen Pharmaceutical Co., Ltd., Tampere, Finland) and the ocular surface was anesthetized with oxybuprocaine eye drop (Oftan Obucain 4 mg/mL, Santen Pharmaceutical Co., Ltd., Tampere, Finland). Thereafter, intravitreal injection of triamcinolone acetonide (100 μL) was given with a 31G needle and syringe. After injection, the eyes were moisturized with carbomer gel (Viscotears 2 mg/g, Dr. Gerhard Mann chem.-pharm. Fabrik GmbH, Berlin, Germany) and the anesthesia was antagonized with 1 mg/kg atipamezole s.c. (Antisedan vet 5 mg/mL, Orion Pharma, Espoo, Finland).
After the second injection, IOP was allowed to settle for 10 days before the experiments were performed. […] Induction of ocular hypertension is presented in Appendix Figure 3. The IOP-lowering effects of the molecules were investigated sequentially, each test initiating once baseline IOP levels was attained.
as §3, §4

[5] = molecular target: recombinant human carbonic anhydrase II; parameters: method as in earlier work; conditions: stopped flow kinetics protocol; read-out: Ki against hCA II; cited from earlier work
[6] = Appendix table 1, Nano or Pico detector, read-out: Melanin binding affinity Kd ± confidence
[7] = MP-SPR, 25 °C, 1:1 model, read-out: KD
[8] = Appendix table 1, Nano or Pico detector

Structure (SMILES)	Kd [1, 6]	Ki [5]	also measured
CC(=NNc1ccc(S(N)(=O)=O)cc1)c1nccnc1C [A05]	97 ± 44 µM	–	ka ([2]; MP-SPR, 25 °C, 1:1 model): 0.61 ± 0.25 10^6 M^–1 s^–1; kd ([2]; MP-SPR, 25 °C, 1:1 model): 1.70 ± 0.25 10^–2 s^–1; Kd [2, 7]: 0.0315 ± 0.00919 µM
CC(=NNc1ccc(S(N)(=O)=O)cc1)c1cncc(Br)c1 [A19]	561 ± 299 µM	–	ka ([2]; MP-SPR, 25 °C, 1:1 model): 0.15 ± 0.04 10^6 M^–1 s^–1; kd ([2]; MP-SPR, 25 °C, 1:1 model): 2.25 ± 0.02 10^–2 s^–1; Kd [2, 7]: 0.161 ± 0.041 µM
NS(=O)(=O)c1ccc(-n2ncc(N3CCCCCC3)cc2=O)cc1 [A12]	–	0.06 ± 0.001 nM	Melanin binding classification [1]: intermediate (intermediate (65–650 μM)); Kd ([1]; melanin nanoparticles 0.5 mg/mL, read-out: Kd ± confidence (melanin binding)): 176 ± 159 µM; AUC0-last ± SD in albino rabbits (IOP decrease vs time) [3]: 13.80 ± 10.06 mmHg x h; ratio (AUCpigm/AUCalbino) of IOP response [4]: 9.0
CC(=NNc1ccc(S(N)(=O)=O)cc1)c1cnc2ccccc2n1 [A17]	483 ± 137 µM	–	ka ([2]; MP-SPR, 25 °C, 1:1 model): 0.13 ± 0.05 10^6 M^–1 s^–1; kd ([2]; MP-SPR, 25 °C, 1:1 model): 1.27 ± 0.11 10^–2 s^–1; Kd [2, 7]: 0.113 ± 0.0507 µM
NS(=O)(=O)c1ccc(-n2nc(-c3ccccc3)ccc2=O)cc1 [A03]	78 ± 39 µM	0.26 ± 0.03 nM	–
NS(=O)(=O)N1CCOCC1 [C21]	–	66.9 ± 7 nM	Melanin binding affinity Kd ± confidence [1, 8]: Not detectable
CC(C)(C)OC(=O)N1CCN(S(N)(=O)=O)CC1 [C17]	–	16.2 ± 1.6 nM	Melanin binding affinity Kd ± confidence [1, 8]: Not detectable
Cc1nn(-c2ccc(S(N)(=O)=O)cc2)c(=O)c2ccccc12 [A14]	205 ± 98 µM	0.03 ± 0.01 nM	–
NS(=O)(=O)c1cc(-c2noc(C3CC3)n2)cs1 [B05]	448 ± 166 µM	0.88 ± 0.08 nM	–
NS(=O)(=O)Nc1ccc(C(F)(F)F)cc1 [C06]	582 ± 465 µM	37.8 ± 3.8 nM	–
COc1ccc2cnn(-c3ccc(S(N)(=O)=O)cc3)c(=O)c2c1OC [A08]	142 ± 55 µM	3.5 ± 0.4 nM	–
COc1ccc(-c2noc(-c3ccc(S(N)(=O)=O)cc3)n2)cc1OC [A04]	92 ± 17 µM	0.46 ± 0.05 nM	–
CC(=NNc1ccc(S(N)(=O)=O)cc1Br)c1cccnc1 [A15]	230 ± 85 µM	–	ka ([2]; MP-SPR, 25 °C, 1:1 model): 0.43 ± 0.25 10^6 M^–1 s^–1; kd ([2]; MP-SPR, 25 °C, 1:1 model): 1.25 ± 0.43 10^–2 s^–1; Kd [2, 7]: 0.046 ± 0.0298 µM
NS(=O)(=O)NCc1ccc(F)cc1 [C03]	361 ± 700 µM	70.5 ± 7.1 nM	–
COc1cc(S(N)(=O)=O)ccc1-c1nc(-c2cccnc2)no1 [A09]	152 ± 98 µM	0.74 ± 0.08 nM	–
CCOC(=O)C1CCN(S(N)(=O)=O)CC1 [C20]	–	42.8 ± 4.3 nM	Melanin binding affinity Kd ± confidence [1, 8]: Not detectable
NS(=O)(=O)c1ccc(-c2noc(-c3ccsc3)n2)cc1 [A18]	520 ± 79 µM	44.3 ± 4.4 nM	–
NS(=O)(=O)c1ccc(-n2cccn2)cc1 [A13]	203 ± 367 µM	0.072 ± 0.001 nM	–
COc1cc(S(N)(=O)=O)ccc1-c1nc(-c2ccc3c(c2)OC(=O)CN3C)no1 [A24]	1550 ± 4580 µM	48.3 ± 4.8 nM	–
COc1ccc(-c2ccc(=O)n(-c3ccc(S(N)(=O)=O)cc3)n2)cc1 [A10]	156 ± 101 µM	0.08 ± 0.001 nM	–
COC(=O)C1CCCN1S(N)(=O)=O (stereo not drawn) [C18]	–	69.8 ± 7 nM	Melanin binding affinity Kd ± confidence [1, 8]: Not detectable
NS(=O)(=O)N1CCc2ccccc21 [C19]	–	472 ± 47.2 nM	Melanin binding affinity Kd ± confidence [1, 8]: Not detectable
NS(=O)(=O)c1ccc(-c2ccc(=O)[nH]n2)s1 [B04]	393 ± 185 µM	3.6 ± 0.4 nM	–
NS(=O)(=O)c1ccc(NN=C(c2cncc(F)c2)C2CC2)cc1 [A07]	115 ± 85 µM	–	ka ([2]; MP-SPR, 25 °C, 1:1 model): 0.24 ± 0.05 10^6 M^–1 s^–1; kd ([2]; MP-SPR, 25 °C, 1:1 model): 1.78 ± 0.40 10^–2 s^–1; Kd [2, 7]: 0.0756 ± 0.0112 µM; Kd ([2]; surface plasmon resonance, Appendix table 1, read-out: Kd against hCA II): 0.0756 ± 0.0112 µM
NS(=O)(=O)NCC1CCCO1 (stereo not drawn) [C05]	412 ± 802 µM	63.4 ± 6.3 nM	–
CC1Cc2ccccc2N1S(N)(=O)=O (stereo not drawn) [C13]	1700 µM	316 ± 31.6 nM	–
Cc1ccc(=O)n(-c2ccc(S(N)(=O)=O)cc2)n1 [A30]	–	0.68 ± 0.07 nM	Melanin binding affinity Kd ± confidence [1, 8]: Not detectable
Cc1ccccc1-n1nc(C)c(S(N)(=O)=O)c1C [B11]	–	0.091 ± 0.01 nM	Melanin binding affinity Kd ± confidence [1, 8]: Not detectable
NS(=O)(=O)c1ccc(-n2ncc(N3CCOCC3)cc2=O)cc1 [A22]	–	0.55 ± 0.01 nM	Melanin binding classification [1]: low (low binders (>650 μM)); AUC0-last ± SD in albino rabbits (IOP decrease vs time) [3]: 10.50 ± 8.73 mmHg x h; AUC0-last ± SD in pigmented rabbits (IOP decrease vs time) ([4]; hypertensive (triamcinolone) rabbits, single 25 μL eye drop, CAI 0.5 or 1.0%, dorzolamide 2%, n = 5): 88.10 ± 63.04 mmHg × h; ratio (AUCpigm/AUCalbino) of IOP response [4]: 8.4
